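Exposure lasted 48 hours, with cells grown in 96-well plates and compounds tested at five concentrations. Here, GI50 denotes the concentration required for 50% inhibition of growth. TGI denotes the concentration required for complete inhibition of growth.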
What was measured:
Assay in all cases: growth of human tumour cells (NCI), 48 h
SN12C renal = test system: SN12C renal
A498 renal = test system: A498 renal
HOP-92 NSCLC = test system: HOP-92 NSCLC
UACC-257 melanoma = test system: UACC-257 melanoma
DU-145 prostate = test system: DU-145 prostate
NCI-H460 lung = test system: NCI-H460 lung
RPMI-8226 leukemia = test system: RPMI-8226 leukemia
OVCAR-5 ovarian = test system: OVCAR-5 ovarian
SF-268 CNS = test system: SF-268 CNS
SNB-75 CNS = test system: SNB-75 CNS
A549 NSCLC = test system: A549 NSCLC
NCI-H23 lung = test system: NCI-H23 lung
SF-295 CNS = test system: SF-295 CNS
OVCAR-8 ovarian = test system: OVCAR-8 ovarian
OVCAR-3 ovarian = test system: OVCAR-3 ovarian
786-0 renal = test system: 786-0 renal
MALME-3M melanoma = test system: MALME-3M melanoma
T-47D breast = test system: T-47D breast
HL-60(TB) leukemia = test system: HL-60(TB) leukemia
PC-3 prostate = test system: PC-3 prostate
U251 CNS = test system: U251 CNS
HS 578T breast = test system: HS 578T breast
RXF 393 renal = test system: RXF 393 renal
SK-MEL-2 melanoma = test system: SK-MEL-2 melanoma
UO-31 renal = test system: UO-31 renal
SK-MEL-5 melanoma = test system: SK-MEL-5 melanoma
NCI/ADR-RES ovarian = test system: NCI/ADR-RES ovarian
TK-10 renal = test system: TK-10 renal
BT-549 breast = test system: BT-549 breast
MOLT-4 leukemia = test system: MOLT-4 leukemia
MCF7 breast = test system: MCF7 breast
OVCAR-4 ovarian = test system: OVCAR-4 ovarian
SK-MEL-28 melanoma = test system: SK-MEL-28 melanoma
ACHN renal = test system: ACHN renal
CAKI-1 renal = test system: CAKI-1 renal
SK-OV-3 ovarian = test system: SK-OV-3 ovarian
K-562 leukemia = test system: K-562 leukemia
LOX IMVI melanoma = test system: LOX IMVI melanoma
EKVX NSCLC = test system: EKVX NSCLC
COLO 205 colon = test system: COLO 205 colon
IGROV1 ovarian = test system: IGROV1 ovarian
SW-620 colon = test system: SW-620 colon
HCC-2998 colon = test system: HCC-2998 colon
HOP-62 NSCLC = test system: HOP-62 NSCLC
HCT-116 colon = test system: HCT-116 colon
CCRF-CEM leukemia = test system: CCRF-CEM leukemia
SNB-19 CNS = test system: SNB-19 CNS
KM12 colon = test system: KM12 colon
HCT-15 colon = test system: HCT-15 colon
MDA-MB-231 breast = test system: MDA-MB-231 breast
NCI-H226 lung = test system: NCI-H226 lung
UACC-62 melanoma = test system: UACC-62 melanoma
NCI-H522 lung = test system: NCI-H522 lung
SF-539 CNS = test system: SF-539 CNS
M14 melanoma = test system: M14 melanoma
HT29 colon = test system: HT29 colon
MDA-MB-435 = test system: MDA-MB-435
SR leukemia = test system: SR leukemia

SMILES: COc1cc2c3c(n(CCCN)c(=O)c2cc1OC)-c1ccc(F)cc1C3=O
- GI50 (SN12C renal): 4.29 µM
- TGI (SN12C renal): 17.4 µM
- GI50 (A498 renal): 14.2 µM
- TGI (A498 renal): 28.5 µM
- GI50 (HOP-92 NSCLC): 8.91 µM
- TGI (HOP-92 NSCLC): 42.9 µM
- GI50 (UACC-257 melanoma): 13.9 µM
- TGI (UACC-257 melanoma): 31 µM
- GI50 (DU-145 prostate): 0.788 µM
- TGI (DU-145 prostate): 2.03 µM
- GI50 (NCI-H460 lung): 0.369 µM
- TGI (NCI-H460 lung): 1.78 µM
- GI50 (RPMI-8226 leukemia): 0.605 µM
- TGI (RPMI-8226 leukemia): 2.71 µM
- GI50 (OVCAR-5 ovarian): 10.4 µM
- TGI (OVCAR-5 ovarian): 22.7 µM
- GI50 (SF-268 CNS): 3.08 µM
- TGI (SF-268 CNS): 20.3 µM
- GI50 (SNB-75 CNS): 11.1 µM
- TGI (SNB-75 CNS): 27 µM
- GI50 (A549 NSCLC): 4.94 µM
- TGI (A549 NSCLC): 21.4 µM
- GI50 (NCI-H23 lung): 1.65 µM
- TGI (NCI-H23 lung): 9.39 µM
- GI50 (SF-295 CNS): 0.564 µM
- TGI (SF-295 CNS): 14.9 µM
- GI50 (OVCAR-8 ovarian): 3.07 µM
- TGI (OVCAR-8 ovarian): 11.3 µM
- GI50 (OVCAR-3 ovarian): 4.46 µM
- TGI (OVCAR-3 ovarian): 17.4 µM
- GI50 (786-0 renal): 1.34 µM
- TGI (786-0 renal): 2.7 µM
- GI50 (MALME-3M melanoma): 9.22 µM
- TGI (MALME-3M melanoma): 28.5 µM
- GI50 (T-47D breast): 2.46 µM
- TGI (T-47D breast): 15.5 µM
- GI50 (HL-60(TB) leukemia): 8.15 µM
- TGI (HL-60(TB) leukemia): 24.9 µM
- GI50 (PC-3 prostate): 1.41 µM
- TGI (PC-3 prostate): 6.64 µM
- GI50 (U251 CNS): 0.746 µM
- TGI (U251 CNS): 6.45 µM
- GI50 (HS 578T breast): 6.49 µM
- TGI (HS 578T breast): 13.6 µM
- GI50 (RXF 393 renal): 7.64 µM
- TGI (RXF 393 renal): 26.6 µM
- GI50 (SK-MEL-2 melanoma): 17 µM
- TGI (SK-MEL-2 melanoma): 34.7 µM
- GI50 (UO-31 renal): 8.15 µM
- TGI (UO-31 renal): 23.7 µM
- GI50 (SK-MEL-5 melanoma): 1.29 µM
- TGI (SK-MEL-5 melanoma): 6.06 µM
- GI50 (NCI/ADR-RES ovarian): 10.6 µM
- TGI (NCI/ADR-RES ovarian): 25.2 µM
- GI50 (TK-10 renal): 14.7 µM
- TGI (TK-10 renal): 30.4 µM
- GI50 (BT-549 breast): 3.81 µM
- TGI (BT-549 breast): 14.4 µM
- GI50 (MOLT-4 leukemia): 0.385 µM
- TGI (MOLT-4 leukemia): 4.13 µM
- GI50 (MCF7 breast): 0.618 µM
- TGI (MCF7 breast): 7.25 µM
- GI50 (OVCAR-4 ovarian): 6.04 µM
- TGI (OVCAR-4 ovarian): 21.2 µM
- GI50 (SK-MEL-28 melanoma): 12.6 µM
- TGI (SK-MEL-28 melanoma): 26.9 µM
- GI50 (ACHN renal): 0.861 µM
- TGI (ACHN renal): 6.14 µM
- GI50 (CAKI-1 renal): 1.69 µM
- TGI (CAKI-1 renal): 15.6 µM
- GI50 (SK-OV-3 ovarian): 3.87 µM
- TGI (SK-OV-3 ovarian): 17.7 µM
- GI50 (K-562 leukemia): 1.24 µM
- TGI (K-562 leukemia): 5.28 µM
- GI50 (LOX IMVI melanoma): 0.955 µM
- TGI (LOX IMVI melanoma): 4.68 µM
- GI50 (EKVX NSCLC): 11.6 µM
- TGI (EKVX NSCLC): 25.1 µM
- GI50 (COLO 205 colon): 1.79 µM
- TGI (COLO 205 colon): 5.4 µM
- GI50 (IGROV1 ovarian): 1.82 µM
- TGI (IGROV1 ovarian): 7.68 µM
- GI50 (SW-620 colon): 1.17 µM
- TGI (SW-620 colon): 15.5 µM
- GI50 (HCC-2998 colon): 2.67 µM
- TGI (HCC-2998 colon): 12.6 µM
- GI50 (HOP-62 NSCLC): 0.544 µM
- TGI (HOP-62 NSCLC): 2.05 µM
- GI50 (HCT-116 colon): 1.19 µM
- TGI (HCT-116 colon): 2.46 µM
- GI50 (CCRF-CEM leukemia): 0.17 µM
- TGI (CCRF-CEM leukemia): 0.987 µM
- GI50 (SNB-19 CNS): 1.47 µM
- TGI (SNB-19 CNS): 15.9 µM
- GI50 (KM12 colon): 5.95 µM
- TGI (KM12 colon): 20.3 µM
- GI50 (HCT-15 colon): 2.24 µM
- TGI (HCT-15 colon): 6.89 µM
- GI50 (MDA-MB-231 breast): 12.8 µM
- TGI (MDA-MB-231 breast): 26.3 µM
- GI50 (NCI-H226 lung): 7.87 µM
- TGI (NCI-H226 lung): 27.2 µM
- GI50 (UACC-62 melanoma): 0.925 µM
- TGI (UACC-62 melanoma): 5.76 µM
- GI50 (NCI-H522 lung): 2.35 µM
- TGI (NCI-H522 lung): 20.3 µM
- GI50 (SF-539 CNS): 1.28 µM
- TGI (SF-539 CNS): 3.17 µM
- GI50 (M14 melanoma): 1.44 µM
- TGI (M14 melanoma): 11.4 µM
- GI50 (HT29 colon): 1.03 µM
- TGI (HT29 colon): 3.18 µM
- GI50 (MDA-MB-435): 8.16 µM
- TGI (MDA-MB-435): 25.5 µM
- GI50 (SR leukemia): 0.118 µM
- TGI (SR leukemia): 1.14 µM
